Measurements from patent publication US20030166656A1, “Therapeutic or preventive medicines for mood disorders or anxiety disorders” (priority 2003, published 2003).

What was measured:
male SD rats = assay: Elevated plus-maze test in rats (antianxiety effect); type: in vivo, rat; details: for antianxiety effect: overall conclusion in words, elevated plus-maze test
Source text: (§1) The isoquinoline derivative rep-resented by formula (I) has a marked effect in the forced swim test, which is the animal model for mood disorder, and in the elevated plus-maze test, which is the animal model for anxiety disorder. Thus, the isoquinoline derivative can be used as a drug for curing or preventing mood disorder or anxiety disorder of mammal and, in particular, human beings. It may also be used in manufacturing of a medicament for curing or preventing mood disorder or anxiety disorder. The evaluation using the above-described animal models can be conducted by a method described in published references [Nature vol. 266, 730 (1977) or Jpn. J. Psychopharmacol vol. 15, 125 (1995)], but the method is not limited to this.
Assessment of Antianxiety Effect by the Elevated Plus-Maze Test in Rats
The experiment was conducted on male SD rats. In the elevated plus-maze test, the elevated plus-maze (manufactured by NeuroScience, Inc.) consisting of closed arms and open arms was used. In the experiment, a rat was placed on an open arm 30 minutes after the drug administration (subcutaneous administration), and the number of entries to the open and closed arms and the time spent in the open arms were measured. The test was conducted for 3 minutes. The rat was assumed to have made entries when all four legs have entered the arm. The ratio of the time spent in the open arms and the ratio of the entries to the open arms were calculated according to the following equations:
Ratio of the time spent in the open arms (%)={(time spent in the open arms)/(total time)}×100
Ratio of the entries to the open arms (%)={(number of entries to the open arms)/(total number of entries)}×100
The vertical axis on the left indicates the ratio of the time spent in the open arms (%) and the ratio of the entries to the open arms (%). The vertical axis on the right indicates the total number of entries. The horizontal axis indicates a control group and treatment groups. Open columns indicate the ratio of the time spent in the open arms (%) and hatched columns indicate the ratio of the entries to the open arms (%). Closed circles indicate the total number of entries. All data are indicated by average ±standard error. In a significance test, the difference was assumed to be significant at a significance level of 5% or less by Dunnett's multiple comparison. In the test, the drug is assumed to have an antianxiety effect when there are an increase in time spent on open arms and an increase in ratio of entries to open arms under administration.

male ICR mice = assay: Forced swim test in mice (antidepressant effect); type: in vivo, mouse; details: for antidepressant effect: overall conclusion in words, forced swim test
Source text: as §1
Assessment of antidepressant effect by the forced swim test in mice
In the experiment, male ICR mice were used. In the forced swim test, the tank for forced swim used was a transparent cylindrical tank made of plastic (inner diameter: 10 cm, height: 30 cm), and water at 25° C. was contained up to 14 cm in height. A mouse was placed in water, and its swimming time during 2 to 6 minutes after placement was measured. The drug was subcutaneously administered 30 minutes before testing. The vertical axis indicates the swimming time (sec) during the measurement time (4 min). The open column indicates a saline-treated group and the hatched columns indicate Compound 1 treatment groups. All data are indicated by average ±standard error. In a significance test, the difference was assumed to be significant at a significance level of 5% or less by Dunnett's multiple comparison. In the test, the drug is assumed to have an antidepressant effect when there is an increase in swimming time under administration.

[1] = FIG. 1, treatment groups vs saline-treated control, s.c., Dunnett's multiple comparison, 5% level

Structure (SMILES) | antianxiety effect (male SD rats) | antidepressant effect (male ICR mice) | ratio of the entries to open arms (male SD rats; [1]) | time spent in open arms (male SD rats; [1]) | swimming time (male ICR mice; FIG. 2, treatment groups vs saline-treated control, s.c., Dunnett's multiple comparison, 5% level)
Cc1c2c(nc3ccccc13)C[C@@]1(c3cccc(O)c3)CCN(C)C[C@@H]1C2 (relative stereo) [Compound 3, 2-methyl-4aα-(3-hydroxyphenyl)-11-methyl-1,2,3,4,4a,5,12,12aβ-octahydro-quinolino [2,3-g]isoquinoline] | significant antianxiety effects | significant antidepressant effect | – | – | –
CN1CC[C@]2(c3cccc(O)c3)Cc3nc4ccccc4c(N)c3C[C@H]2C1 (relative stereo) [Compound 5, 2-methyl-4aα-(3-hydroxyphenyl)-11-amino-1,2,3,4,4a,5,12,12aβ-octahydro-quinolino,[2,3-g]isoquinoline] | significant antianxiety effects | significant antidepressant effect | – | – | –
Oc1cccc([C@]23CCN(CCc4ccccc4)C[C@@H]2Cc2cc4ccccc4nc2C3)c1 (relative stereo) [Compound 6, 2-phenethyl-4aα-(3-hydroxyphenyl)-1,2,3,4,4a,5,12,12aβ-octahydro-quinolino [2,3-g]isoquinoline] | significant antianxiety effects | significant antidepressant effect | – | – | –
CN1CC[C@]2(c3cccc(O)c3)Cc3nc4ccccc4cc3C[C@@H]2C1 [Compound 1, (4aS,12aS)-2-methyl-4a-(3-hydroxyphenyl)-1,2,3,4,4a,5,12,12a-octahydroquinolino [2,3-g]isoquinoline] | confirmed to have an antianxiety effect | confirmed to have an antidepressant effect | dose-dependent significant increase | dose-dependent significant increase | dose-dependent significant increase
